Publication PMC11726677, “Eradication of Therapy-Resistant Cancer Stem Cells by Novel Telmisartan Derivatives” (Journal of Medicinal Chemistry, 2024)
pEC50, pIC50: −log10 of the molar value. Values joined by “and” are separate entries in the source; they are usually repeats but may differ in a detail not shown here. Equal values may be shown once.

How the values were obtained:
ABCB1 [1] = test: Jess Simple Western immunoassay of ABCB1 expression in K562-R cells; format: cell-based, human; conditions: 4 μM, 72 h
Method: (§1) Protein extracts were prepared as previously described.[44] Protein expression was determined using the capillary-based Jess Simple Western detection system (ProteinSimple, BioTechne) according to the manufacturer’s instructions at default settings. […] Horseradish peroxidase (HRP)-conjugated secondary antirabbit antibody, which was included in the Jess Detection Module kit, was used. Data analysis was conducted using Compass for Simple Western 4.0 software (ProteinSimple, BioTechne).

K562-R cells [2] = test: Metabolic activity of K562-R cells, compounds alone (modified MTT assay); format: cell-based, human; conditions: 72 h; for viability at 10 µM: Homo sapiens, K-562R, read-out: metabolic activity of K562-R cells, compound alone; for metabolic activity of K562-R cells, compound alone: 10 μM, without imatinib, vehicle control = 100%
Method: (§2) The potential reduction in cell viability was determined using the modified MTT assay.
First, the compounds (10 μM) were applied alone to evaluate their effects per se.
(§3) COS-7 (2 × 10^3 cells per well), IGROV-1 SP (2.5 × 10^3 cells per well), A2780 V SP (1.5 × 10^3 cells per well), PC3-DR (4 × 10^3 cells per well), and DU145-DR (3 × 10^3 cells per well) cells were seeded in 96-well plates in triplicates and after 24 h, the compounds were added at the respective concentrations. K562-R and K562 cells (2 × 10^4 cells per well), were treated with the compounds 2 h after seeding. […] A modified MTT colorimetric assay (EZ4U kit, Biomedica) was used to determine the metabolic activity of the tested cells, according to the manufacturer’s instructions. Absorbance was measured and the optical density of the respective FCS-containing medium and of the substrate was subtracted to exclude nonspecific staining. Metabolic activity in the absence of the compounds (CTR, DMSO) was set to 100% as reference.

STAT5 = test: Jess Simple Western immunoassay of STAT5/pSTAT5 in K562-R cells; format: cell-based, human
Method: In the next step, the effects of the compounds (4 μM) on STAT5 in K562-R cells were examined.
as §1

K562-R cells [3] = test: Chemosensitizing: metabolic activity of K562-R cells cotreated with imatinib (modified MTT assay); format: cell-based, human; conditions: 72 h; for pEC50 / chemosensitizing effect, concentration-dependent analysis: K562-R, + imatinib 1 μM; for pEC50: read-out: SC50 (drug concentration eliciting 50% of the maximum sensitizing effect); for chemosensitizing effect, concentration-dependent analysis: 0.5–8 μM (transporter inhibitors 10 to 0.5 μM)
Method: as §2
conc. 10 to 0.5 μM) over 72 h (Figure 3D).
as §3

[4] = biological target: ABCB1 transporter in K562-R cells (Homo sapiens, UniProt P08183); test: Side population (SP) analysis, DCV staining, flow cytometry; conditions: 10 μM
Chain of ABCB1 transporter in K562-R cells (P08183 whole entry): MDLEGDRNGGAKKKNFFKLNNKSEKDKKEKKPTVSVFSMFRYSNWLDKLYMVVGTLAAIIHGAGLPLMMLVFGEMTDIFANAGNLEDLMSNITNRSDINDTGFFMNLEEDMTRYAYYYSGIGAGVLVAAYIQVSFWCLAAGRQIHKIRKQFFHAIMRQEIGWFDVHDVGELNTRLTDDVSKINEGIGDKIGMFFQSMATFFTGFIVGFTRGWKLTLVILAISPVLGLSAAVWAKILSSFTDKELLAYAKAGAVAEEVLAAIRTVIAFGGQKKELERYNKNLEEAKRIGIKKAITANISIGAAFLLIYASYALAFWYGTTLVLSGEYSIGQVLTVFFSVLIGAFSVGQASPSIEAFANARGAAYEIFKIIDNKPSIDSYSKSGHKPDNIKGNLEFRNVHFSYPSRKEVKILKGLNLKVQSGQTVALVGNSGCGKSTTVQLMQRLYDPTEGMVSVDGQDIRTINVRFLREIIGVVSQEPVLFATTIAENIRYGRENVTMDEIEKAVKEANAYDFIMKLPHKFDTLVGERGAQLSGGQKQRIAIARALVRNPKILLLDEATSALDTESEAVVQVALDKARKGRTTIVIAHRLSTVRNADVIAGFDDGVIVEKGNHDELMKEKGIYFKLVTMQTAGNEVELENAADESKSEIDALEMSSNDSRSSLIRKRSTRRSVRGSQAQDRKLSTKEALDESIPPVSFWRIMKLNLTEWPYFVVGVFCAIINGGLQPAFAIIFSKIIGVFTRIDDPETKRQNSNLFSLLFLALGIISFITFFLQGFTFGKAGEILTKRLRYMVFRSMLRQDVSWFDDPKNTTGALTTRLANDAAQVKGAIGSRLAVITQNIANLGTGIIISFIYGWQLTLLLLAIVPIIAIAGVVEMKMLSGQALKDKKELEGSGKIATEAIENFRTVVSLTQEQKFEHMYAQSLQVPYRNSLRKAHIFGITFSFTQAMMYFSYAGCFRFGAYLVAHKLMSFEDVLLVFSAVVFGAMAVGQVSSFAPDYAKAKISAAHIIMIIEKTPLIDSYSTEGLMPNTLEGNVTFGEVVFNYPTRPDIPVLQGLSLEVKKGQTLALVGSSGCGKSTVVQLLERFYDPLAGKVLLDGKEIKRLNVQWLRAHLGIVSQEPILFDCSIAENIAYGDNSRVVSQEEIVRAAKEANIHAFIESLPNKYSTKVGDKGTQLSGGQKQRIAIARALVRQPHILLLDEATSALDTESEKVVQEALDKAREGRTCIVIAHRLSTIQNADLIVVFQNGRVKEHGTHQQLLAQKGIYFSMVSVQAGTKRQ
Method: SP analyses were performed as previously described[45] on a LSRFortessa flow cytometer (BD Biosciences, Vienna, Austria). Briefly, 1 × 10^6 cells/mL were stained with 10 μM Vybrant DyeCycleTM Violet (DCV; Molecular Probes, Eugene, OR) in the presence or absence of the investigated compounds for 90 min at 37 °C. […] Subsequently, the cells were washed and immediately analyzed using flow cytometry. The FlowJo 9.6 software was used for data analyses (Tree Star Software, Ashland, CA).

K562 cells = test: Metabolic activity of TKI-sensitive K562 cells (MTT assay); format: cell-based, human; conditions: 10 μM, 72 h, alone
Method: Selectivity for therapy-resistant K562-R cells can be assessed by comparing the results with TKI-sensitive K562 cells.
as §3

PC3-DR cells = test: Chemosensitizing to docetaxel: metabolic activity of PC3-DR cells (MTT); format: cell-based, human; conditions: DTX 12.5 nM, 72 h, compared to solvent control
Method: (§4) The chemosensitizing efficacy was investigated in the ovarian and prostate cancer cell lines using the above-described metabolic activity assay. Paclitaxel (PTX) served as a reference (CTR) in A2780 V SP and IGROV-1 SP cells and docetaxel (DTX) in PC3-DR and D145-DR cells.
as §3

DU145-DR cells = test: Chemosensitizing to docetaxel: metabolic activity of DU145-DR cells (MTT); format: cell-based, human; conditions: DTX 12.5 nM, 72 h, compared to solvent control
Method: as §4, §3

[5] = tested on: human CML K562-R xenograft; test: Efficacy in human CML K562-R xenograft model; format: in vivo, female NOD/SCID mice; design: % T/C (treatment/control) / % TGI (tumor growth inhibition): concentration or dose not given beside the values; conditions: for % TGI (tumor growth inhibition): vs vehicle control
Method: The animals were checked daily for humane end points. Body weight was measured and recorded daily after dosing.
The % T/C value, defined as the ratio of the mean tumor volume for the treated versus control group, was calculated as % T/C = (Tn/Cn) × 100%; whereas Tn: denotes mean tumor volume of the treated group on day n, and Cn: denotes mean tumor volume of the control group on day n. The optimal value is the minimal % T/C ratio, which reflects the maximal tumor growth inhibition achieved.
TGI (Tumor growth inhibition) was calculated by the following formula [drawing 1] [drawing 2]
Whereas: Tn: denotes the mean tumor volume of the treated group on day n; T1: denotes the mean tumor volume of the treated group on day 1; Cn: denotes the mean tumor volume of the vehicle control group on day n; and C1: denotes the mean tumor volume of the vehicle control group at day 1.

K562-R cells [6] = test: Metabolic activity of K562-R cells, compounds alone (modified MTT assay); format: cell-based, human; conditions: imatinib 1 μM, 72 h; compared to the 100% solvent control
[7] = Body weight / tolerability in the K562-R xenograft study; conditions: 7c 10 mg/kg, imatinib 50 mg/kg, PO QD × 30 days
IGROV-1 SP cells = test: Chemosensitizing to paclitaxel: metabolic activity of IGROV-1 SP cells (MTT); format: cell-based, human; conditions: PTX 10 nM, 72 h, compared to solvent control
Method: as §4, §3

A2780 V SP cells = test: Chemosensitizing to paclitaxel: metabolic activity of A2780 V SP cells (MTT); format: cell-based, human
Method: as §4, §3

ABCB1 [8] = tested on: ABCB1; design: method as in Weiss et al. 38; conditions: ref Weiss et al. 38; cited from earlier work

CCCc1nc2ccccc2n1Cc1ccccc1C(=O)OC [1b, Methyl 2-((2-propyl-1H-benzo[d]imidazole-1-yl)methyl)benzoate]
ABCB1 protein expression (ABCB1 [1]): none of the compounds abrogated the ABCB1 protein expression | viability at 10 µM (K562-R cells [2]): < 70% | phosphorylation of STAT5 (STAT5; 4 μM + imatinib 1 μM, 6 h): hardly triggered any change in the expression of pSTAT5 | phosphorylation of STAT5 (STAT5; 4 μM alone, 72 h): prevented the activation of STAT5 | metabolic activity of K562-R cells, combination with imatinib (K562-R cells [3]; compound 8 μM + imatinib 1 μM): 44–57% | metabolic activity of K562-R cells, combination with imatinib (K562-R cells [3]; compound 10 μM + imatinib 1 μM): 34–58% | effect on SP phenotype / ABCB1 activity [4]: had no significant impact on the SP

CCCc1nc2ccccc2n1Cc1ccccc1C(N)=O [1c, 2-((2-Propyl-1H-benzo[d]imidazole-1-yl)methyl)benzamide]
viability at 10 µM (K562-R cells [2]): 75 to 80% | metabolic activity of K562-R cells, combination with imatinib (K562-R cells [3]; compound 10 μM + imatinib 1 μM): could not be increased

CCCc1nc2ccccc2n1Cc1cccc(C(=O)OC)c1 [2b, Methyl 3-((2-propyl-1H-benzo[d]imidazole-1-yl)methyl)benzoate]
viability at 10 µM (K562-R cells [2]): < 70% | metabolic activity of K562-R cells, combination with imatinib (K562-R cells [3]; compound 8 μM + imatinib 1 μM): 44–57% | metabolic activity of K562-R cells, combination with imatinib (K562-R cells [3]; compound 10 μM + imatinib 1 μM): 34–58% | effect on SP phenotype / ABCB1 activity [4]: had no significant impact on the SP

CCCc1nc2ccccc2n1Cc1cccc(C(N)=O)c1 [2c, 3-((2-Propyl-1H-benzo[d]imidazole-1-yl)methyl)benzamide]
metabolic activity of K562-R cells, combination with imatinib (K562-R cells [3]; compound 10 μM + imatinib 1 μM): could not be increased

CCCc1nc2ccccc2n1Cc1ccc(C(=O)OC)cc1 [3b, Methyl 4-((2-propyl-1H-benzo[d]imidazole-1-yl)methyl)benzoate]
metabolic activity of K562-R cells, combination with imatinib (K562-R cells [3]; compound 8 μM + imatinib 1 μM): 44–57% | metabolic activity of K562-R cells, combination with imatinib (K562-R cells [3]; compound 10 μM + imatinib 1 μM): 34–58% | effect on SP phenotype / ABCB1 activity [4]: had no significant impact on the SP

CCCc1nc2ccccc2n1Cc1ccc(C(N)=O)cc1 [3c, 4-((2-Propyl-1H-benzo[d]imidazole-1-yl)methyl)benzamide]
metabolic activity of K562-R cells, combination with imatinib (K562-R cells [3]; compound 10 μM + imatinib 1 μM): could not be increased

CCCc1nc2ccccc2n1Cc1ccc(-c2ccccc2C(=O)OC)cc1 [4b, Methyl 4′-((2-propyl-1H-benzo[d]imidazole-1-yl)methyl)-[1,1′-biphenyl]-2-carboxylate]
metabolic activity of K562 cells (K562 cells): ≥ 65% | ABCB1 protein expression (ABCB1 [1]): none of the compounds abrogated the ABCB1 protein expression | viability at 10 µM (K562-R cells [2]): < 70% | phosphorylation of STAT5 (STAT5; 4 μM + imatinib 1 μM, 6 h): hardly triggered any change in the expression of pSTAT5 | phosphorylation of STAT5 (STAT5; 4 μM alone, 72 h): prevented the activation of STAT5 | pEC50 (K562-R cells [3]): 5.91 | metabolic activity of K562-R cells, combination with imatinib (K562-R cells [3]; compound 10 μM + imatinib 1 μM): 8–24% | effect on SP phenotype / ABCB1 activity [4]: efficiently reduced the ABCB1 activity | relation of SP and NSP [4]: about 50%

CCCc1nc2ccccc2n1Cc1ccc(-c2cccc(C(=O)OC)c2)cc1 [5b, Methyl 4′-((2-propyl-1H-benzo[d]imidazole-1-yl)methyl)-[1,1′-biphenyl]-3-carboxylate]
metabolic activity of K562 cells (K562 cells): ≥ 65% | viability at 10 µM (K562-R cells [2]): < 70% | metabolic activity of K562-R cells, combination with imatinib (K562-R cells [3]; compound 10 μM + imatinib 1 μM): 34–58%

CCCc1nc2ccccc2n1Cc1ccc(-c2ccc(C(=O)OC)cc2)cc1 [6b, Methyl 4′-((2-propyl-1H-benzo[d]imidazole-1-yl)methyl)-[1,1′-biphenyl]-4-carboxylate]
metabolic activity of K562 cells (K562 cells): ≥ 65% | ABCB1 protein expression (ABCB1 [1]): none of the compounds abrogated the ABCB1 protein expression | viability at 10 µM (K562-R cells [2]): 75 to 80% | phosphorylation of STAT5 (STAT5; 4 μM + imatinib 1 μM, 6 h): marked repression of the STAT5 phosphorylation | pEC50 (K562-R cells [3]): 5.93 | metabolic activity of K562-R cells, combination with imatinib (K562-R cells [3]; compound 10 μM + imatinib 1 μM): 8–24% | effect on SP phenotype / ABCB1 activity [4]: efficiently reduced the ABCB1 activity | relation of SP and NSP [4]: about 50%

CC(=O)O[C@@]12CO[C@@H]1C[C@H](O)[C@@]1(C)C(=O)[C@H](O)C3=C(C)[C@@H](OC(=O)[C@H](O)[C@@H](NC(=O)OC(C)(C)C)c4ccccc4)C[C@@](O)([C@@H](OC(=O)c4ccccc4)[C@H]21)C3(C)C [DTX, docetaxel, reference compound]
metabolic activity of treated cells, DTX alone (PC3-DR cells): > 80% | metabolic activity of treated cells, DTX alone (DU145-DR cells): > 80%

Cc1ccc(NC(=O)c2ccc(CN3CCN(C)CC3)cc2)cc1Nc1nccc(-c2cccnc2)n1 [Imatinib, imatinib, reference compound]
% TGI (tumor growth inhibition) ([5]; Day 5): 76% | % TGI (tumor growth inhibition) ([5]; Day 8): 54% | % TGI (tumor growth inhibition) ([5]; Day 12): 50% | % TGI (tumor growth inhibition) ([5]; Day 15): 66% | % TGI (tumor growth inhibition) ([5]; Day 19): 57% | % TGI (tumor growth inhibition) ([5]; Day 22): 57% | % TGI (tumor growth inhibition) ([5]; Day 26): 56% | % TGI (tumor growth inhibition) ([5]; Day 29): 55% | % TGI (tumor growth inhibition) ([5]; Day 33): 59% | Tumor Weight, individual animal ([5]; harvested on day 33, animals No. 1–7): 4.442 g and 0.194 g and 0.080 g and 0.082 g and 0.351 g and 3.076 g and 0.081 g | Tumor Weight, group mean ([5]; harvested on day 33, n = 7): 1.200 g | metabolic activity of K562-R cells, imatinib alone (K562-R cells [6]): 73% | tolerability [7]: well tolerated

CC(=O)O[C@H]1C(=O)[C@@]2(C)[C@H]([C@H](OC(=O)c3ccccc3)[C@]3(O)C[C@H](OC(=O)[C@H](O)[C@@H](NC(=O)c4ccccc4)c4ccccc4)C(C)=C1C3(C)C)[C@]1(OC(C)=O)CO[C@@H]1C[C@@H]2O [PTX, paclitaxel]
metabolic activity of treated cells, PTX alone (IGROV-1 SP cells): > 80% | pIC50 (A2780 V SP cells; Homo sapiens, PTX 0–300 nM, read-out: IC50 (PTX), PTX alone): 6.78 | metabolic activity of treated cells, PTX alone (A2780 V SP cells; PTX 10 nM, 72 h, compared to solvent control): > 80%

COc1cc2c(cc1OC)CN(CCc1ccc(NC(=O)c3cccc4c(=O)c5cccc(OC)c5[nH]c34)cc1)CC2 [elacridar, reference compound]
metabolic activity of K562 cells (K562 cells): did not affect the viability | ABCB1 protein expression (ABCB1 [1]): none of the compounds abrogated the ABCB1 protein expression | metabolic activity of K562-R cells, compound alone (K562-R cells [2]): did not affect the viability | phosphorylation of STAT5 (STAT5; 4 μM + imatinib 1 μM, 6 h): hardly triggered any change in the expression of pSTAT5 | phosphorylation of STAT5 (STAT5; 4 μM alone, 72 h): did not influence the phosphorylation of STAT5 | chemosensitizing effect, concentration-dependent analysis (K562-R cells [3]): comparable to telmi-ester (7b)

CCCCC1=NC2(CCCC2)C(=O)N1Cc1ccc(-c2ccccc2-c2nnn[nH]2)cc1 [irbesartan]
inhibition of ABCB1 (ABCB1 [8]): only slightly

C/C=C/C[C@@H](C)C(=O)[C@H]1C(=O)N[C@@H](C(C)C)C(=O)N(C)CC(=O)N(C)[C@@H](CC(C)C)C(=O)N[C@@H](C(C)C)C(=O)N(C)[C@@H](CC(C)C)C(=O)N[C@@H](C)C(=O)N[C@H](C)C(=O)N(C)[C@@H](CC(C)C)C(=O)N(C)[C@@H](CC(C)C)C(=O)N(C)[C@@H](C(C)C)C(=O)N1C [valspodar, reference compound]
metabolic activity of K562 cells (K562 cells): did not affect the viability | metabolic activity of K562-R cells, compound alone (K562-R cells [2]): did not affect the viability | chemosensitizing effect, concentration-dependent analysis (K562-R cells [3]): sensitized the cells similarly to the derivatives 4b, 5c, 6b, 6c
